In the assay the target is T1, human TREM2 (Homo sapiens, UniProt Q9NZC2).
T1 construct: expressed in transfected cells; host or cells: HEK293T (HEK293T-hTREM2 cells)
The experiment in a line: TREM2 agonist potency by cellular phosphorylation of Spleen Tyrosine Kinase (Syk), AlphaLisa, HEK293T-hTREM2 cells. It is filed as cell-based. As to conditions: hTREM2 EC50 Data (HEK293 Cells); Syk phosphorylation, AlphaLisa; read-out: hTREM2 EC50. The procedure: Measurement of TREM2 agonist potency was done using a HEK cell line expressing human TREM2 and DAP12 (HEK293T-hTREM2 cells). Binding of small molecules to, and activation of, TREM2 increases the phosphorylation of Syk. The resultant levels of Syk phosphorylation are measured using a commercial AlphaLisa reagent kit. To perform the assay, HEK-hTREM2 cells were plated at 14,000 cells per well in a 384 well plate, in 25 μL of complete growth media and incubated at 37° C., 5% CO2 for 20-24 hours.
Prior to the assay, test compounds were diluted in the 384 well plates in assay buffer and allowed to equilibrate for 30 minutes. Growth media was removed from cell plates by inversion on blotting paper, and 25 μL of test articles in assay buffer was added to cells. Cells were incubated for 45 minutes at room temperature. After 45 minutes, assay buffer was removed and 10 μL of lysis buffer was added. Plates were shaken for 20 minutes at 350 RPM at room temperature. After complete lysis, AlphaLisa reagents were added to the lysate, and fluorescence intensity was measured using a Perkin Elmer Envision plate reader. Intensities were used to generate a standard curve, and % activation was calculated. Curve fitting was performed using Prism v9 software, log (agonist) vs response-variable slope (four parameters), and EC50s were calculated from the curve fit.
The results presented in Table B have been generated with the in vitro assay described above. This assay may be used to test any of the compounds described herein to assess and characterize a compound's ability to act as an agonist of TREM2.

Our source for the EC50 values is patent US20260356841A1, “HETEROCYCLIC PYRIDINONE COMPOUNDS AS TRIGGERING RECEPTOR EXPRESSED ON MYELOID CELLS 2 AGONISTS AND METHODS OF USE” (Vigil Neuroscience, Inc., priority 2023, published 2026).

Structures are written as SMILES. pEC50: −log10 of the molar value.

T1 sequence (Q9NZC2 19-230): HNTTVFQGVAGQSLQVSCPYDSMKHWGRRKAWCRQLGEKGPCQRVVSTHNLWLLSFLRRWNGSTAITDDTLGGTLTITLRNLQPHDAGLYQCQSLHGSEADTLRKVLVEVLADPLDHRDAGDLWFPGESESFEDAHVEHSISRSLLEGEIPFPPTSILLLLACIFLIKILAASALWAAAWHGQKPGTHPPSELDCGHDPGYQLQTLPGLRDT
T1 sequence (O43914 22-113 partner): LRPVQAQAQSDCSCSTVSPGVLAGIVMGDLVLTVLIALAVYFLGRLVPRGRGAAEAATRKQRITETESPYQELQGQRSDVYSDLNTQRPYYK

In general, pEC50 refers to −log10 of the EC50, conventionally taken in molar units. As for `Cc1nc2nc(C3CCO[C@@H](c4ccc(=O)n(N(C)C)c4)C3)nc(C34CC(C(F)(F)F)(C3)C4)c2nc1C(F)F` (stereo in doubt) [Example 220, 5-((2R,4R)-4-(6-(difluoromethyl)-7-methyl-4-(3-(trifluoromethyl)bicyclo[1.1.1]pentan-1-yl)pteridin-2-yl)tetrahydro-2H-pyran-2-yl)-1-(dimethylamino)pyridin-2(1H)-one], the pEC50 is greater than 7.00.

For the compound `[2H]C([2H])([2H])n1cc([C@H]2C[C@@H](c3nc(C45CC(C(F)(F)F)(C4)C5)c4cc(C(F)(F)F)c(C)nc4n3)CCO2)ccc1=O` [Example 334, 1-(methyl-d3)-5-((2R,4S)-4-(7-methyl-6-(trifluoromethyl)-4-(3-(trifluoromethyl)bicyclo[1.1.1]pentan-1-yl)pyrido[2,3-d]pyrimidin-2-yl)tetrahydro-2H-pyran-2-yl)pyridin-2(1H)-one], the pEC50 was greater than 7.00. On to `CCCNn1cc([C@H]2C[C@@H](c3nc(C45CC(C(F)(F)F)(C4)C5)c4nc(C)c(C)nc4n3)CCO2)ccc1=O` [Example 212, 5-[(2R,4S)-4-[6,7-dimethyl-4-[3-(trifluoromethyl)-1-bicyclo[1.1.1]pentanyl]pteridin-2-yl]tetrahydropyran-2-yl]-1-(propylamino)pyridin-2-one], for which the negative-log EC50 (pEC50) was greater than 7.00. With `Cc1nc2nc(N3CCC(F)(F)C(c4ccc(=O)[nH]c4)C3)nc(-c3ccc(F)cc3F)c2nc1C` (stereo not shown) [Example 189, 5-[1-[4-(2,4-difluorophenyl)-6,7-dimethyl-pteridin-2-yl]-4,4-difluoro-3-piperidyl]-1H-pyridin-2-one], the negative-log EC50 (pEC50) is greater than 7.00. As for `Cc1nc2nc(C3CCOC(c4ccc(=O)n(C)c4)C3)nc(C34CC(C(F)(F)F)(C3)C4)c2nc1C` (stereo not shown) [Example 27, 5-(4-(6,7-dimethyl-4-(3-(trifluoromethyl)-bicyclo[1.1.1]pentan-1-yl)pteridin-2-yl)tetrahydro-2H-pyran-2-yl)-1-methylpyridin-2(1H)-one], the pEC50 is greater than 7.00.

Take `[2H]C([2H])([2H])n1cc([C@H]2C[C@@H](c3nc(C45CC(C(F)(F)F)(C4)C5)c4nc(C)c(C)nc4n3)CCO2)ccc1=O` [Example 36]: the pEC50 is greater than 7.00. With `Cc1nc2nc([C@H]3CCO[C@@H](c4ccc(=O)n(NCC(F)F)c4)C3)nc(C34CC(C(F)(F)F)(C3)C4)c2nc1C` [Example 214, 1-((2,2-difluoroethyl)amino)-5-((2R,4S)-4-(6,7-dimethyl-4-(3-(trifluoromethyl)bicyclo[1.1.1]pentan-1-yl)pteridin-2-yl)tetrahydro-2H-pyran-2-yl)pyridin-2(1H)-one] the figure was greater than 7.00; with `Cc1nc2nc([C@@H]3CCO[C@H](c4ccc(=O)n(C)c4)C3)nc(-c3ccc(C(F)(F)F)cc3F)c2nc1C` [Example 5, 1-methyl-5-[(2S,4R)-4-[4-[2-fluoro-4-(trifluoromethyl)phenyl]-6,7-dimethyl-pteridin-2-yl]tetrahydropyran-2-yl]pyridin-2-one], greater than 7.00. On to `Cc1nc2c(C34CC(C(F)(F)F)(C3)C4)nc([C@H]3CCO[C@@H](c4ccc(=O)n(C)c4)C3)nc2nc1C1CC1` [Example 155, 1-methyl-5-[(2R,4S)-4-[7-cyclopropyl-6-methyl-4-[3-(trifluoro-methyl)-1-bicyclo[1.1.1]pentanyl]-pteridin-2-yl]tetrahydropyran-2-yl]pyridin-2-one], for which the pEC50 was greater than 7.00.

With `Cc1nc2nc([C@@H]3CCO[C@H](c4ccc(=O)n(C(C)C)c4)C3)nc(-c3ccc(C(F)(F)F)cc3F)c2nc1C` [Example 69, 1-isopropyl-5-[(2S,4R)-4-[4-[2-fluoro-4-(trifluoromethyl)-phenyl]-6,7-dimethyl-pteridin-2-yl]tetrahydropyran-2-yl]pyridin-2-one], the negative logarithm of the EC50 (pEC50) was greater than 7.00.

Turning to `Cc1nc2nc(N3C[C@@H](C)O[C@@H](c4ccc(=O)n(C)c4)C3)nc(-c3cnc(C4CC4)s3)c2nc1C` [Example 21, 5-[(2S,6R)-4-[4-(2-cyclopropylthiazol-5-yl)-6,7-dimethyl-pteridin-2-yl]-6-methyl-morpholin-2-yl]-1-methyl-pyridin-2-one], the pEC50 was greater than 7.00. Regarding `Cc1nc2nc(N3C[C@@H](C)O[C@@H](c4ccc(=O)n(C)c4)C3)nc(C34CC(C(N)=O)(C3)C4)c2nc1C` [Example 204, 3-[6,7-dimethyl-2-[(2R,6S)-2-methyl-6-(1-methyl-6-oxo-3-pyridyl)morpholin-4-yl]pteridin-4-yl]bicyclo[1.1.1]pentane-1-carboxamide], the negative-log EC50 (pEC50) is less than 6.30. For `Cc1nc2nc([C@@H]3CCO[C@H](c4ccc(=O)n(C56CC(C5)C6)c4)C3)nc(C34CC(C(F)(F)F)(C3)C4)c2nc1C` [Example 121, 1-(1-bicyclo[1.1.1]pentanyl)-5-[(2S,4R)-4-[6,7-dimethyl-4-[3-(trifluoromethyl)-1-bicyclo[1.1.1]-pentanyl]pteridin-2-yl]tetrahydropyran-2-yl]pyridine-2-one], the pEC50 is greater than 7.00.

Consider `CN(C)c1nc2nc([C@@H]3CCO[C@H](c4ccc(=O)n(C)c4)C3)nc(-c3ccc(F)cc3F)c2s1` [Example 14, 5-[(2S,4R)-4-[7-(2,4-difluorophenyl)-2-(dimethylamino)thiazolo[4,5-d]pyrimidin-5-yl]tetrahydropyran-2-yl]-1-methyl-pyridin-2-one], for which the negative-log EC50 (pEC50) is greater than 7.00. Consider `Cc1nc2c(C34CC(C(F)(F)F)(C3)C4)nc(N3C[C@@H](C)O[C@@H](c4ccc(=O)n(C5CC5)c4)C3)nc2c(=O)n1C` [Example 219], for which the pEC50 was greater than 7.00.

In the case of `Cc1nc2nc([C@H]3CCO[C@@H](c4ccc(=O)n(C5CC5)c4)C3)nc(C34CC(C(F)(F)F)(C3)C4)c2cc1C(F)(F)F` [Example 328, 1-cyclopropyl-5-((2R,4S)-4-(7-methyl-6-(trifluoromethyl)-4-(3-(trifluoromethyl)bicyclo[1.1.1]-pentan-1-yl)pyrido[2,3-d]pyrimidin-2-yl)tetrahydro-2H-pyran-2-yl)pyridin-2(1H)-one], the pEC50 was greater than 7.00. For the compound `Cc1nc2nc([C@H]3CCO[C@@H](c4ccc(=O)n(C)c4)C3)nc(C34CC(C(F)(F)F)(C3)C4)c2nc1C` [Example 25, 5-((2R,4S)-4-(6,7-dimethyl-4-(3-(trifluoromethyl)bicyclo[1.1.1]pentan-1-yl)pteridin-2-yl)tetrahydro-2H-pyran-2-yl)-1-methylpyridin-2(1H)-one], the negative-log EC50 (pEC50) was greater than 7.00. For the compound `Cc1cnc2nc([C@H]3CCO[C@@H](c4ccc(=O)n(C)c4)C3)nc(C34CC(C(F)(F)F)(C3)C4)c2n1` [Example 198, 1-methyl-5-((2R,4S)-4-(6-methyl-4-(3-(trifluoromethyl)bicyclo[1.1.1]pentan-1-yl)pteridin-2-yl)tetrahydro-2H-pyran-2-yl)pyridin-2(1H)-one], the negative-log EC50 (pEC50) was 6.30 to 7.00. For `COCCn1cc([C@H]2C[C@@H](c3nc(C45CC(C(F)(F)F)(C4)C5)c4nc(C)c(C)nc4n3)CCO2)ccc1=O` [Example 82, 5-[(2R,4S)-4-[6,7-dimethyl-4-[3-(trifluoromethyl)-1-bicyclo[1.1.1]pentanyl]pteridin-2-yl]tetrahydropyran-2-yl]-1-(2-methoxyethyl)pyridin-2-one] the value was greater than 7.00; for `Cc1cc2c(C34CC(C(F)(F)F)(C3)C4)nc([C@H]3CCO[C@@H](c4ccc(=O)n(C)c4)C3)nc2nc1C` [Example 324], greater than 7.00; for `CCNn1cc([C@H]2C[C@@H](c3nc(C45CC(C(F)(F)F)(C4)C5)c4nc(C)c(C)nc4n3)CCO2)ccc1=O` [Example 181, 5-[(2R,4S)-4-[6,7-dimethyl-4-[3-(trifluoromethyl)-1-bicyclo[1.1.1]pentanyl]pteridin-2-yl]tetrahydropyran-2-yl]-1-(ethylamino)pyridin-2-one], greater than 7.00. For the compound `[2H]C([2H])([2H])n1cc([C@H]2CN(c3nc(C45CC(C(F)(F)F)(C4)C5)c4nc(C)c(C)nc4n3)C[C@@H](C)O2)ccc1=O` [Example 354], the negative-log EC50 (pEC50) is greater than 7.00. As for `CN1Cc2c(cc([C@H]3CCO[C@@H](c4ccc(=O)n(C)c4)C3)nc2-c2ccc(C(F)(F)F)cc2F)C1=O` (single isomer, unassigned) [Example 165], the negative logarithm of the EC50 (pEC50) was 6.30 to 7.00. `Cc1cnc2c(C34CC(C(F)(F)F)(C3)C4)nc([C@H]3CCO[C@@H](c4ccc(=O)[nH]c4)C3)nc2n1` [Example 187, 5-((2R,4S)-4-(7-methyl-4-(3-(trifluoromethyl)bicyclo[1.1.1]pentan-1-yl)pteridin-2-yl)tetrahydro-2H-pyran-2-yl)pyridin-2(1H)-one]: the pEC50 is 6.30 to 7.00.

In the case of `Cc1nc2nc(N3C[C@@H](C)O[C@@H](c4ccc(=O)[nH]c4)C3)nc(C34CC(C(F)(F)F)(C3)C4)c2nc1C1COC1` [Example 195, 5-[(2S,6R)-6-methyl-4-[7-methyl-6-(oxetan-3-yl)-4-[3-(trifluoromethyl)-1-bicyclo[1.1.1]pentanyl]pteridin-2-yl]morpholin-2-yl]-1H-pyridin-2-one], the pEC50 is greater than 7.00.
